Reference: patent publication US20260356803A1, “Nicotinamide derivatives” (Board of Regents, The University of Texas System, priority 2024, published 2026)
Read-outs that look alike come from different tables or passages of the source.

Key:
[1] = system: human MPNST cell line S462; experiment: S462 cell viability (CellTiter-Glo, 72 h); format: cell-based; details: for toxicity to S462 / rescue by nicotinamide: 10% FBS Nam-free DMEM; for rescue by nicotinamide: comparison of vacor, 3-AP, tiazofurin and 9
Source text: This similarity, in addition to the scaffold's particular sensitivity to modifications around the pyridinyl ring led us to hypothesize that the activity of compounds 1 and 9 may depend on the concentration of Nam in the media. To test this hypothesis, we analyzed the activity of both compounds in media supplemented with increasing concentrations of Nam. […] Given that Nam inhibited compound activity, we considered Nam concentrations in basal culture conditions (DMEM supplemented with 10% fetal bovine serum or FBS) as compared to physiological levels. Nam levels in human serum are estimated to be in the 4 μM range.^5 In contrast, DMEM alone contains […] of Nam and the concentration in 10% FBS is expected to range between 0.574-1.56 μM.^6 To more closely reflect physiologic levels of Nam, we evaluated the activity of these compounds in cells grown in DMEM lacking Nam (Nam-free DMEM), so that the only exogenous Nam derives from 10% FBS. […] These observations indicate that the potency of these compounds is in the nanomolar range when tested in the presence of physiological levels of Nam.
We thus re-assessed the structure activity relationship of compound 21 analogs in Nam-free DMEM supplemented with or without 100 μM Nam (see appendix below: Synthesis, characterization and activity of micromolar and nanomolar active nicotinamide derivatives). […] Particularly notable, even in Nam-depleted conditions, all active analogs retained the same 3-pyridinyl ring as Nam, reinforcing the relationship between structural resemblance to Nam and compound efficacy.
In 96-well assay plates (Corning #2903), 2,000 cells were plated per well in 100 μL of medium and allowed to adhere overnight. The next day, compounds or Nam suspended in DMSO were dispensed to the assayed wells using a D300e Digital Dispenser (Tecan). All wells were normalized to 0.5% DMSO. 72 hours after incubation at 37 °C in 5% CO2, cell viability was assayed using an ATP-based luminescent viability assay, CellTiter-Glo (Promega #G8462). CellTiter-Glo substrate was mixed 1:1 with phosphate-buffered saline (PBS) supplemented with 1% Triton X-100, and 40 μL of this mixture was added to the assay wells. After the plates were shaken on a microplate shaker for 10 minutes at room temperature, luminescence was recorded using a Synergy 2 Microplate Reader or Cytation 5 plate reader (BioTek). In Prism 9 software (GraphPad), ten-point dose response curves were plotted with baseline-correction to the vehicle control well, and IC50 values were calculated by curve fitting using asymmetric (five parameter), least squares fit.

[2] = system: SARM1; experiment: Cytotoxicity in SARM1-knockout versus wild type cells; format: cell-based; details: SARM1-knockout vs wild type
Source text: (§1) Given that vacor, 3-AP, and compound 21 are all metabolized to toxic, NAD-like derivatives through NAMPT and NMNAT, we hypothesized that their anti-cancer activity may also depend on SARM1. To test this, we compared the toxic effects of vacor, 3-AP, and 9 in either wild type cells or cells in which we used CRISPR to silence SARM1. […] These observations highlight that even though these different scaffolds are toxified through the same mechanism, the resulting metabolites may have different activities. We next co-titrated guanosine, which is known to rescue tiazofurin by bypassing IMPDH in guanylate synthesis, with each of the above small molecules. […] To test this hypothesis, we set up in vitro reactions with different combinations of 9, NAMPT and NMNAT. After incubation, metabolites were extracted, reconstituted in aqueous solution and then co-incubated with an established IMPDH2 enzyme assay.

[3] = system: IMPDH; experiment: Guanosine co-titration rescue; format: cell-based; details: guanosine co-titrated
Source text: as §1

[4] = system: NMNAT1 or alcohol dehydrogenase; experiment: Counter screen with NMN in place of NAM; format: biochemical; details: role: inhibitor; 50 μM NMN substituted for NAM
Procedure: NAMPT activity was measured using a coupled-enzyme assay previously described [Revollo, 2014]. Briefly, reactions consisting of 50 mM Tris pH 8, 0.4 mM PRPP, 2.5 mM ATP, 12 mM MgCl2, 0.02% BSA, 1 μM NAMPT, 77 nM NMNAT1, 10 mM semicarbazide, 30 μg/ml alcohol dehydrogenase were set up in a 384-well plate (50 μl/well). […] The reactions were started by addition of 50 μM NAM. Fluorescence due to NADH formation by alcohol dehydrogenase was measured in a BioTek Cytation 5 plate reader (Agilent, USA) set up for excitation at λ=340 nm and detection of emission at λ=460 nm. To counter screen for NMNAT1 or alcohol dehydrogenase inhibition, the assay was set up above but substituting 50 μM NMN (substrate for NMNAT1) for NAM. No inhibition of was observed under these conditions.

[5] = system: iHCT116 cells; experiment: Forward genetics resistance selection (IAA-inducible mutagenesis); format: cell-based
Source text: Second, we screened for resistance to 9 in iHCT116 cells, a system that uses inducible mutagenesis and forward genetics to find compound-resistant mutations and thus can reveal both loss of function and gain of function alleles that suppress activity. The iHCT116 system is a barcoded cell line in which we temporally control mutagenesis by the addition of indole acetic acid (IAA) mediated degradation of the mismatch repair protein MLH1.^12 MLN4924 is a small molecule toxin that we use as a positive control to verify that IAA treatment leads to increased mutations. By degrading MLH1 and increasing the overall mutation rate, IAA treatment increases the frequency of UBA3 mutations, leading to a higher rate of MLN4924 resistance. […] Having previously established a relationship between either NMNAT1 levels or NAMPT activity and compound resistance, we analyzed the levels of both enzymes in multiple resistant clones that harbored unique barcode sequences. […] To test whether reduced NMNAT1 levels in these clones contributed to resistance, we ectopically expressed NMNAT1 in either the parental cells or a representative resistant clone with low NMNAT1 expression.

[6] = [nicotinamide] 0 μM, Nam-free DMEM, read-out: IC50 (μM), [nicotinamide] 0 μM
[7] = [nicotinamide] 33 μM, read-out: IC50 (μM), [nicotinamide] 33 μM
[8] = [nicotinamide] 100 μM, read-out: IC50 (μM), [nicotinamide] 100 μM
[9] = S462, commercial DMEM, highest dose tested 50 μM, read-out: IC50

Row | Compound | IC50 [1, 6] [µM] | IC50 [1, 7] [µM] | IC50 [1, 8] [µM] | also measured
1 | Cc1csc(C(=O)Nc2cccnc2)c1 | 0.302 | > 50 | > 50 | –
2 | O=C(Nc1cccnc1)c1ccccc1 | 0.064 | 16.8 | > 50 | –
3 | O=C(Nc1cccnc1)c1ccccn1 | 0.992 | > 50 | > 50 | –
4 | O=C(Nc1cccnc1)c1ccco1 | 0.022 | > 50 | > 50 | –
5 | O=C(Nc1cccnc1)c1cccnn1 | 18 | > 50 | > 50 | –
6 | O=C(Nc1cccnc1)c1ccoc1 | 0.948 | > 50 | > 50 | –
7 | Cc1ncsc1C(=O)Nc1cccnc1 | – | > 50 | > 50 | –
8 | O=C(Nc1cccnc1)c1ccc[nH]1 | 0.08 | > 50 | > 50 | –
9 | O=C(Nc1cccnc1)c1ccc(Br)s1 | 0.234 | 15.6 | > 50 | –
10 | O=C(Nc1cccnc1)c1ncc[nH]1 | 22.4 | > 50 | > 50 | –
11 | O=C(Nc1cccnc1)c1ccc(Cl)cc1 | 0.921 | > 50 | > 50 | –
12 | O=C(Nc1cccnc1)c1cc2ccccc2s1 | 0.249 | 21.4 | > 50 | –
13 | COc1ccc(C(=O)Nc2cccnc2)cc1 | 0.686 | > 50 | > 50 | –
14 | O=C(Nc1cccnc1)c1nccs1 | 1.88 | > 50 | > 50 | –
15 | O=C(Nc1cccnc1)c1ccc(C(F)(F)F)cc1 | 0.771 | > 50 | > 50 | –
16 | O=C(Nc1cccnc1)c1ncco1 | 19.5 | > 50 | > 50 | –
17 | Cc1ccsc1C(=O)Nc1cccnc1 | 1.08 | > 50 | > 50 | –
18 | N#Cc1ccc(C(=O)Nc2cccnc2)s1 | 0.075 | 14.2 | > 50 | –
19 | Cc1ccc(C(=O)Nc2cccnc2)s1 | 0.184 | > 50 | > 50 | –
20 | O=C(Nc1cccnc1)c1cc2c(s1)CCCC2 | 0.763 | > 50 | > 50 | –
21 | COc1cccc(C(=O)Nc2cccnc2)c1 | 2.36 | > 50 | > 50 | –
22 | O=C(Nc1cncc(F)c1)c1cccs1 | – | > 50 | > 50 | –
23 | Cc1ccccc1C(=O)Nc1cccnc1 | 14.7 | > 50 | > 50 | –
24 | N#Cc1cncc(NC(=O)c2cccs2)c1 | – | > 50 | > 50 | –
25 | O=C(Nc1cnc(Cl)c(Cl)c1)c1cccs1 | 8.76 | > 50 | 42.4 | –

Row | Compound | IC50 [1, 6] [µM] | IC50 [1, 7] [µM] | IC50 [1, 8] [µM] | also measured
26 | O=C(Nc1ccon1)c1cccnc1 | 2.73 | > 50 | > 50 | –
27 | O=C(Nc1ccc(Br)nc1)c1cccs1 | 8.5 | > 50 | > 50 | –
28 | O=C(Nc1ccccc1)c1cccnc1 | 0.024 | 13.1 | > 50 | –
29 | N#Cc1ccc(NC(=O)c2cccs2)cn1 | 2.78 | > 50 | > 50 | –
30 | CCOC(=O)c1ccsc1NC(=O)c1cccnc1 | – | > 50 | > 50 | –
31 | O=C(Nc1cc(-c2ccccc2)cs1)c1cccnc1 | 2.46 | – | 39.6 | –
32 | Cc1sc(NC(=O)c2cccnc2)c(C#N)c1C | – | – | > 50 | –
33 | CCOC(=O)c1ccc(NC(=O)c2cccnc2)s1 | 0.23 | – | > 50 | –
34 | Cc1cc(C#N)c(NC(=O)c2cccnc2)s1 | – | – | > 50 | –
35 | N#Cc1c(NC(=O)c2cccnc2)sc2c1CCC2 | 5.97 | – | 6.1 | –
36 | Cc1cccc(C(=O)Nc2cccnc2)c1 | 35.7 | > 50 | > 50 | –
37 | N#Cc1c(NC(=O)c2cccnc2)sc2c1CCCC2 | 4.74 | – | 4.72 | –
38 | O=C(Nc1nc2cccnc2s1)c1cccnc1 | 23.9 | > 50 | > 50 | –
39 | O=C(Nc1ccccc1)c1cccs1 [Compound 2, N-Phenylthiophene-2-carboxamide] | – | – | – | IC50 [1, 9]: > 50 µM
40 | O=C(Nc1ccccn1)c1cccs1 [Compound 3, N-(Pyridin-2-yl)thiophene-2-carboxamide] | – | – | – | IC50 [1, 9]: > 50 µM
41 | CC(=O)c1cccnc1 [Compound 3-AP, 3-acetylpyridine, reference compound] | – | – | – | toxicity to S462 [1]: toxic to S462; rescue by nicotinamide [1]: rescued by nicotinamide; sensitivity of SARM1-knockout cells [2]: equally sensitive; guanosine rescue of toxicity [3]: no rescue
42 | O=C(Nc1ccncc1)c1cccs1 [Compound 4, N-(Pyridin-4-yl)thiophene-2-carboxamide] | – | – | – | IC50 [1, 9]: > 50 µM
43 | O=C(/C=C/c1cccnc1)NCCCCC1CCN(C(=O)c2ccccc2)CC1 [FK866, reference compound] | – | – | – | inhibition in counter screen [4]: No inhibition
44 | NS(=O)(=O)OC[C@@H]1C[C@@H](n2ccc3c(N[C@H]4CCc5ccccc54)ncnc32)C[C@@H]1O [MLN4924, reference compound] | – | – | – | resistant clones ([5]; IAA treated (Mut-on)): 33 clones; resistant clones ([5]; vehicle (Mut-off)): one
45 | O=C(Nc1cccs1)c1cccnc1 [drawing 72] | 0.006 | 1.2 | > 50 | –
46 | O=C(Nc1nc2ccccc2s1)c1cccnc1 [drawing 105] | 0.623 | – | > 50 | –
47 | O=C(Nc1nc2ccccc2s1)c1cccnc1 [drawing 111] | 36.2 | > 50 | > 50 | –
48 | NC(=O)c1csc([C@@H]2O[C@H](CO)[C@@H](O)[C@H]2O)n1 [tiazofurin, reference compound] | – | – | – | toxicity to S462 [1]: toxic to S462; rescue by nicotinamide [1]: all compounds except tiazofurin were rescued by nicotinamide; guanosine rescue of toxicity [3]: guanosine rescue
49 | O=C(NCc1cccnc1)Nc1ccc([N+](=O)[O-])cc1 [vacor, reference compound] | – | – | – | toxicity to S462 [1]: toxic to S462; rescue by nicotinamide [1]: rescued by nicotinamide; resistance of SARM1-knockout cells [2]: 3 fold; guanosine rescue of toxicity [3]: no rescue
